Data on three molecules can be found in US8980936B2, “Phenoxy-pyrrolidine derivative and its use and compositions” (Thesan Pharmaceuticals, Inc., priority 2007, dated 2015).

For one test, the system named is sebum production. The following applies: background statement, cited from earlier work.
In test [1] the target is T1, stearoyl CoA desaturase (SCD1) (Rattus norvegicus, UniProt P07308).
T1 construct: Rat liver microsomes are allowed to react with stearoyl-coenzyme A labeled with D3; from tissue
T1 sequence (P07308 1-358): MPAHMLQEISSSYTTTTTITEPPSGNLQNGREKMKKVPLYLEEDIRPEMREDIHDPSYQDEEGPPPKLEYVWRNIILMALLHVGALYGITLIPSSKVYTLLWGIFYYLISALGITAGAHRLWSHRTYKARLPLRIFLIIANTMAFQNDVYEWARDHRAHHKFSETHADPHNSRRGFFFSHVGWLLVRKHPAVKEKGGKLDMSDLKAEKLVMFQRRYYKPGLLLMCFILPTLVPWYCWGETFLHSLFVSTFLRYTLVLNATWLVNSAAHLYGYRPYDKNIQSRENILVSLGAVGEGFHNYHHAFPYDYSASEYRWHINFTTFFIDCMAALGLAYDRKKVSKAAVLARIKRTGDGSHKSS
Briefly: Rat microsomal assay: conversion of labeled stearoyl CoA to oleoyl CoA by LC/MS/MS. The following applies: rat liver microsomes; 40 μM substrate (2× Km); mean of N=3; read-out: IC50, inhibition of SCD1 activity (conversion of stearoyl CoA to oleoyl CoA). Format: biochemical. The protocol: As described below, the assay measures the conversion of labeled stearoyl CoA to oleoyl CoA using LC/MS/MS.
In order to increase SCD1 activity in rat liver microsomes, Sprague Dawley rats are fasted for 40 hours. Following fasting diet is replaced with free fatty acid deficient chow ad libitum for 48 hours. Rats are then euthanized using CO2 asphyxiation and their livers are removed. Livers are weighed, minced and placed in homogenization buffer ([…], 50 mM Tris-HCl, pH 7.5, 5 mM EDTA, 1.5 mM GSH) on ice. Microsomes are isolated by homogenization with a polytron and several centrifugation steps. Following final centrifugation, the resulting pellet is resuspended in homogenization buffer and protein concentration is determined. Aliquots are stored at −80° C. until use.
Rat liver microsomes are allowed to react with stearoyl-coenzyme A labeled with D3 in the presence of the compound of Formula I to test the compound's ability to inhibit the conversion of stearoyl-coenzyme A to oleoyl coenzyme A. The reaction is terminated using acetonitrile. Free fatty acids are extracted by saponification of the samples with 2M KOH at 70° C. […] Samples are reconstituted in 9:1 Methanol:Water, with 2 ug/ml heptadecanoic acid added as an internal standard, and analyzed by LC/MS/MS. The ability to inhibit the conversion of stearoyl CoA to oleoyl CoA is expressed as an IC50.
For orientation: Microsomes from liver hold many membrane-bound enzymes, among them those of drug oxidation.

Test [2] addresses T2, SCD1 enzyme in intact human cells (Homo sapiens, UniProt O00767).
T2 construct: The cells were received as pre-adipocytes and then differentiated for 5 days in a 384 well format; host or cells: cryopreserved human subcutaneous preadipocytes, differentiated to adipocytes
T2 sequence (O00767 1-359): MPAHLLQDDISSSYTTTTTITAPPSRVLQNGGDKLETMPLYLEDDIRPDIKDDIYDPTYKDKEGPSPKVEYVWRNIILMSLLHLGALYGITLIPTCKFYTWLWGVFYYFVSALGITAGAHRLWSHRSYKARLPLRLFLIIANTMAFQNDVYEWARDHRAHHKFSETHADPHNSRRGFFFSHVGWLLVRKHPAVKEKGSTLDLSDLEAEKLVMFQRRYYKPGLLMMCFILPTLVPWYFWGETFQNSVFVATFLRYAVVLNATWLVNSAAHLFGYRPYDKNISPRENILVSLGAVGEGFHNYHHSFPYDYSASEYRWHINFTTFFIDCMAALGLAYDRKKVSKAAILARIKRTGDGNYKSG
Briefly: Human adipocyte (AdipoRed) assay: production of triglycerides. Format: cell-based. The following applies: differentiated human subcutaneous adipocytes; 6 days compound treatment; mean of N=6; read-out: IC50, inhibition of the production of triglycerides. The protocol:
The role of SCD1 is believed to be similar in adipocytes and sebocytes. The ability of the compound to inhibit the SCD1 enzyme in intact human cells was determined using the Human AdipoRed assay as described below. The cells were received as pre-adipocytes and then differentiated for 5 days in a 384 well format. The compound is added at various concentrations for 6 days. The production of triglycerides was then assessed by a unique dye which specifically binds to secreted triglycerides. The ability to inhibit the production of triglycerides is expressed as an IC50.
Cryopreserved subcutaneous preadipocytes (Cat #: PT-5001 Supplier: Cambrex Bio Science) were briefly thawed in 37 C and spin down at 1000 rpm for 5 minutes. Preadipocyte are resuspended in 30 ml of Growth Media (GM, Cat #: PT-8202 Cambrex Bio Science) and are diluted to final concentration of 75,000 cells/ml. 40 μl of Cells are then plated into wells of 384-Well BD Falcon polystyrene assay plate at the density of 3,000 cells (40 μl) per well. […]
After 5 days' differentiation, cells were treated with 2 μl of the compound from 96-well compound plate in duplicate by Biomek FX. […] The accumulation of intracellular triglycerides is then quantified by measuring fluoresce at 572 nm on a SpectraMax M5 microplate reader.

For the next test, the system named is male Syrian hamsters. Briefly: Hamster ear model: inhibition of sebum production. It is filed as in vivo, Syrian hamster. The source says:
The hamster ear model is a validated animal model for testing whether compounds are capable of modulating sebaceous gland function and sebum secretion. Luderschmidt et al, Arch. Derm. Res. 258, 185-191 (1977). This model uses male Syrian hamsters, whose ears contain sebaceous glands. The compound of the invention was screened in this model according to the procedure outlined below. In these studies, the hamsters are topically dosed twice daily (BID) for 2 weeks, 5 days a week (Monday to Friday). Each dose consisted of 25 μl of vehicle control or formulated test article, which was evenly applied to ˜3 cm^2 of the ventral surfaces of both the right and left ears. At sacrifice, skin punches are taken for lipid analysis, histology and skin concentrations of the test compound.
Male Syrian hamsters aged 9 to 10 weeks were introduced into the laboratory environment and acclimated for 2 weeks prior to use in the study. Each group consisted of 5 animals and run in parallel with vehicle and positive controls. […]
Animals were dosed topically twice daily, five days a week, for 2 weeks. Each dose consisted of 25 μl of vehicle control or drug. The dose was applied to the ventral surfaces of both the right and left ears. All animals were sacrificed approximately 18-24 hours after the final dose. The right ears were collected from each animal and used for sebum analysis.
The ears were prepped for HPLC analysis in the following manner. One 8 mm distal biopsy punch was taken, just above the anatomical “V” mark in the ear to normalize the sample area. The punch was pulled apart. The ventral biopsy surface (the area where the topical dose was directly applied to the sebaceous glands) was retained for testing and the dorsal surface of the biopsy punch was discarded.
Tissue samples were blown with N2 gas and stored at −80° C. under nitrogen until HPLC analysis. In addition to ear samples, an aliquot of each drug and vehicle (at least 250 μl) was also stored at −80° C. for inclusion in the HPLC analysis.
HPLC analysis was carried out on an extract of the tissue sample. Tissue samples were contacted with 3 ml of solvent (a 4:1 admixture of 2,2,4-trimethylpentane and isopropyl alcohol). The mixture was shaken for 15 minutes and stored overnight at room temperature, protected from light. The next morning 1 milliliter of water was added to the sample and shaken for 15 minutes. The sample was then centrifuged at approximately 1500 rpm for 15 minutes. Two ml of the organic phase (top layer) was transferred to a glass vial, dried at 37° C., under nitrogen, for approximately 1 hour, and then lyophilized for approximately 48 hours. The samples were then removed from the lyophilizer and each vial was reconstituted with 600 μl of solvent A (trimethylpentane/tetrahydrofuran (99:1). The samples were then recapped and vortexed for 5 minutes.
200 μl of each sample was then transferred to a pre-labeled 200 μl HPLC vial with 200 μL glass inserts. The HPLC vials were placed in the autosampler tray for the Agilent 1100 series HPLC unit. The Agilent 1100 HPLC system consisted of a thermostated autosampler, a quaternary pump, a column heater, and an A/D interface module. All components were controlled by Agilent ChemStation software. A Waters Spherisorb S3W […] analytical column was maintained at 30° C. by the Agilent column heater unit. The HPLC autosampler was programmed to maintain the sample temperature at 20° C. throughout the run.
10 μL of each sample was injected in triplicate into the column. Two solvents were used for the solvent gradient. Solvent A was an admixture of trimethylpentane and tetrahydrofuran (99:1). Solvent B was ethyl acetate. The gradient utilized is described in the table below: […]
The Sedex 75 Evaporative Light Scattering Detector (ELSD) was operated at 45° C. with a gain of 5, and N2 pressure maintained at 3.1 bar. Analog signal obtained by the instrument was sent to the Agilent A/D interface module where it was converted to a digital output. […]

[3] abbreviates: dose response experiment, formulated in propylene glycol:ethanol 30.70 (w/v), topical.
[4] abbreviates: dosed at 1.5% in propylene glycol/transcutanol/ethanol 20/20/60, topical BID, 2 weeks, hamster ear.
Setting [5] is: two week topical BID application, propylene glycol:ethanol 30.70.

In the case of `CC1=C(/C=C/C(C)=C/C=C/C(C)=C\C(=O)O)C(C)(C)CCC1` [Isotretinoin], the “suppression of sebum production” value in the test on sebum production was “up to 90%”.

Turning to `O=C(COc1ccc(CO)cc1)N1CC[C@H](Oc2ccccc2C(F)(F)F)C1` [compound of Formula I, (S)-2-(4-(hydroxymethyl)phenoxy)-1-(3-(2-(trifluoromethyl)phenoxy)pyrroli-din-1-yl)ethanone], the IC50 (in general, the concentration needed to halve the response being measured) in test [1] was 5.8 nM. Also, the half-inhibitory concentration (IC50) in test [2] was determined as 6.8 nM. In the test with male Syrian hamsters (setting [3]), the “CE and WE production, dose response” value is “dose dependent decrease of both CE and WE production”; the “sebaceous gland size and number, histology” value was “Dose related changes in sebaceous gland size and number”. In the test with male Syrian hamsters (setting [4]), the “reduction in cholesterol ester (CE) compared to vehicle control” value is 62%, the “reduction in wax ester (WE) compared to vehicle control” value is reported as 82% and the sebaceous gland size entry was “reduction in sebaceous gland size”. In the test with male Syrian hamsters (setting [5]), the “ED50 based on WE reduction” value is reported as 0.3% and the “ED50 based on WE reduction, per area” value amounted to 0.025 mg/cm^2.

As for `CCOC(=O)/C=C(C)/C=C/C=C(C)/C=C/c1c(C)cc(OC)c(C)c1C` [etretinate], the “effect on sebum synthesis” value with sebum production (Zouboulis 2004) was “do not reduce sebum synthesis”.
